Laboratory results published in patent US20070258912A1, “Use of Fluorescent Whitening Agents as Antimicrobials” (priority 2004, published 2007).

Assays:
Format in all cases: cell-based
[1] = test system: Corynebacterium minutissimum; test: MIC in the agar incorporation test; conditions: agar incorporation, Mueller Hinton agar, 24 hours at 37° C., read-out: MIC Corynebacterium minutissimum
Actinomyces viscosus [2] = test: MIC against oral microorganisms via broth dilution; conditions: ATCC43146, broth dilution 0.94-15 ppm, 7-10 days at 37° C. anaerobically, ATCC 43146, read-out: MIC Actinomyces viscosus
Description: (§1) Determination of the Minimum Inhibition Concentration (MIC Value) Against Different Oral Microorganisms Via Broth Dilution
(§2) 1500 ppm stock solutions of the substances are prepared in ethanol and pipetted into the growth medium to yield concentrations between 0.94 and 15 ppm. Bacteria are taken from blood agar plates with cotton swabs and adjusted in the appropriate growth medium to yield an optical density corresponding to McFarland 0.5. This suspension is directly used in the case of F. nucleatum and P. nigrescens. For the other strains, the suspension is diluted 1:20. 0.1 ml of these bacterial suspensions are added to 2 ml of the substance solutions. After the incubation time, the tubes are assessed for growth (turbidity).
(§3) Test Organisms: *Actinobacillus actinomycetemcomitans ATCC 43718 *Stretococcus gordonii ATCC 10558 *Streptococcus mutans ATCC 33402 Actinomyces viscosus ATCC 43146 Fusobacterium nucleatum subsp. polymorphum ATCC 10953 Porphyromonas gingivalis ATCC 33277
(§4) Prevotella nigrescens ATCC 33563

Porphyromnas gingivalis = test: MIC against oral microorganisms via broth dilution; conditions: broth dilution 0.94-15 ppm, Columbia bouillon, 7-10 days at 37° C. anaerobically, ATCC 33277; read-out: MIC Porphyromnas gingivalis
Description: as §1, §2, §3, §4

[3] = test system: Fusobacterium nucleatum subsp. polymorphum; test: MIC against oral microorganisms via broth dilution; conditions: ATCC10953, broth dilution 0.94-15 ppm, 7-10 days at 37° C. anaerobically, ATCC 10953, read-out: MIC Fusobacterium nucleatum subsp. polymorphum
Description: as §1, §2, §3, §4

Prevotella nigrescens = test: MIC against oral microorganisms via broth dilution; conditions: ATCC33563, broth dilution 0.94-15 ppm, Columbia bouillon, 7-10 days at 37° C. anaerobically, ATCC 33563, read-out: MIC Prevotella nigrescens
Description: as §1, §2, §3, §4

Streptococcus mutans = test: MIC against oral microorganisms via broth dilution; conditions: ATCC33402, broth dilution 0.94-15 ppm, 24 h aerobically with 10% CO2, ATCC 33402, read-out: MIC Streptococcus mutans
Description: as §1, §2, §3, §4

Streptococcus gordonii = test: MIC against oral microorganisms via broth dilution; conditions: ATCC10558, broth dilution 0.94-15 ppm, 24 h aerobically with 10% CO2, ATCC 10558, read-out: MIC Streptococcus gordonii
Description: as §1, §2, §3, §4

Staphylococcus aureus [4] = test: Microbicidal activity (suspension test, plate count); conditions: ATCC 6538
Description: (§5) Determination of Microbicidal Activity
(§6) 1 g stock solution with an appropriate concentration of test products are mixed with 8 g water and then inoculated with 1 ml of the selected test organisms. After a given contact period, aliquots are taken, inactivated and diluted. The number of surviving bacteria per ml incubation assay is determined by plate count. Proper inactivation by the inactivating medium used was checked each time.
(§7) Diluent: tryptone water for microorganisms
(§8) • (0.1% tryptone (Oxoid), 0.85% NaCl, deion. water) • deion. water for test substances • inactivating medium for detection of surviving microorganisms Growth medium: casein soybean peptone agar Inactivating Medium: tryptic soy broth special • (10% w/w Tween 80, 3% w/w Lecithine, 0.1% w/w L-Histidine, • 0.055% w/w Sodium thiosulfate) Test organisms: Staphylococcus aureus ATCC 6538 • Escherichia coli ATCC 10536 • Actinomyces viscosus ATCC 43146 • Corynebacterium xerosis ATCC 373 Test concentration: 120 ppm and 1200 ppm Contact times: 5 and 30 minutes at 22° C.
(§9) Incubation time: 24 h at 37° C.

Corynebacterium xerosis [5] = test: as above; conditions: ATCC 373
Description: as §5, §6, §7, §8, §9

Actinomyces viscosus [6] = test: as above; conditions: ATCC 43146
Description: as §5, §6, §7, §8, §9

Escherichia coli [7] = test: as above; conditions: ATCC 10536
Description: as §5, §6, §7, §8, §9

Propionibacterium acnes = test: MIC in the agar incorporation test; conditions: Cutibacterium acnes; agar incorporation, Mueller Hinton agar, 24 hours at 37° C.; read-out: MIC Propionibacterium acnes
Description: (§10) Determination of Minimum Inhibitory Concentration (MIC Values) in the Agar Incorporation Test
(§11) 1% stock solutions of the substances are prepared in an appropriate solvent and diluted in serial dilutions 1:2 (to yield end concentrations in the agar of 500-1.9 ppm). 0.3 ml of each dilution step is mixed with 15 ml of nutrient medium while the latter is still liquid. After the nutrient medium has solidified, 10 μl of each test strain in 0.85% NaCl solution are spotted onto the agar medium.
(§12) The plates are incubated at 37° C. for 24 hours and then the highest dilution (lowest concentration) of the test substance at which growth is no longer observable is determined.
(§13) Test Organisms: Staphylococcus aureus ATCC 6583 Staphylococcus epidermidis ATCC 12228 Corynebacterium xerosis ATCC 373 Propionibacterium acnes ATCC Escherichia coli ATCC 10536 Salmonella choleraesuis ATCC Klebsiella pneumoniae ATCC *Candida albicans ATCC 10231
(§14) *Aspergillus niger ATCC 6275

Staphylococcus aureus [8] = test: MIC in the agar incorporation test; conditions: ATCC6583, agar incorporation, Mueller Hinton agar, 24 hours at 37° C., ATCC 6583, read-out: MIC Staphylococcus aureus
Description: as §10, §11, §12, §13, §14

Corynebacterium xerosis [9] = test: MIC in the agar incorporation test; conditions: ATCC373, agar incorporation, Mueller Hinton agar, 24 hours at 37° C., ATCC 373, read-out: MIC Corynebacterium xerosis
Description: as §10, §11, §12, §13, §14

Escherichia coli [10] = test: MIC in the agar incorporation test; conditions: ATCC10536, agar incorporation, Mueller Hinton agar, 24 hours at 37° C., ATCC 10536, read-out: MIC Escherichia coli
Description: as §10, §11, §12, §13, §14

Salmonella choleraesuis = test: MIC in the agar incorporation test; conditions: Salmonella enterica, Mueller Hinton agar, 24 hours at 37° C.
Description: as §10, §11, §12, §13, §14

Staphylococcus epidermis = test: MIC in the agar incorporation test; conditions: ATCC12228, agar incorporation, Mueller Hinton agar, 24 hours at 37° C., ATCC 12228, read-out: MIC Staphylococcus epidermis
Description: as §10, §11, §12, §13, §14

Klebsiella pneumoniae = test: MIC in the agar incorporation test; conditions: Mueller Hinton agar, 24 hours at 37° C.
Description: as §10, §11, §12, §13, §14

[11] = test system: Actinobacillus actinomycetemcomitans; test: MIC against oral microorganisms via broth dilution; conditions: Aggregatibacter actinomycetemcomitans, ATCC43718; broth dilution 0.94-15 ppm, 24 h aerobically with 10% CO2, ATCC 43718
Description: as §1, §2, §3, §4

[12] = 1200 ppm, 5 min contact at 22° C.
[13] = 1200 ppm, 30 min contact at 22° C.

Row | Compound | MIC [1] [µg/mL] | MIC (Actinomyces viscosus [2]) [µg/mL] | MIC (Porphyromnas gingivalis) [µg/mL] | MIC [3] [µg/mL] | MIC (Prevotella nigrescens) [µg/mL] | MIC (Streptococcus mutans) [µg/mL] | MIC (Streptococcus gordonii) [µg/mL] | Microbicidal activity Staphylococcus aureus 120 ppm/5 min (Staphylococcus aureus [4]; 5 min contact at 22° C.) [log reduction] | Microbicidal activity Staphylococcus aureus 120 ppm/30 min (Staphylococcus aureus [4]; 30 min contact at 22° C.) [log reduction] | Microbicidal activity Corynebacterium xerosis 120 ppm/5 min (Corynebacterium xerosis [5]; 5 min contact at 22° C.) [log reductions] | Microbicidal activity Corynebacterium xerosis 120 ppm/30 min (Corynebacterium xerosis [5]; 30 min contact at 22° C.) [log reductions] | Microbicidal activity Actinomyces viscosus 120 ppm/5 min (Actinomyces viscosus [6]; 5 min contact at 22° C.) [log reductions] | Microbicidal activity Actinomyces viscosus 120 ppm/30 min (Actinomyces viscosus [6]; 30 min contact at 22° C.) [log reductions] | Microbicidal activity Escherichia coli 120 ppm/5 min (Escherichia coli [7]; 5 min contact at 22° C.) [log reduction] | Microbicidal activity Escherichia coli 120 ppm/30 min (Escherichia coli [7]; 30 min contact at 22° C.) [log reduction] | MIC (Propionibacterium acnes) [µg/mL] | MIC (Staphylococcus aureus [8]) [µg/mL] | MIC (Corynebacterium xerosis [9]) [µg/mL] | MIC (Salmonella choleraesuis) [µg/mL] | MIC (Staphylococcus epidermis) [µg/mL] | further results
1 | CN(C)CCSc1ccccc1/C=C/c1ccc(/C=C/c2ccccc2SCCN(C)C)cc1 [formula 23] | 3.9 | 3.75 | 3.75 | 7.5 | 7.5 | 7.5 | 7.5 | 2 | 4 | 5 | 5 | 2 | 4 | 3.3 | 5 | 3.9 | 7.8 | 7.8 | 125 | 15.6 | MIC (Escherichia coli [10]): 125 µg/mL; MIC (Klebsiella pneumoniae): 31.3 µg/mL
2 | CCN(CC)CCOc1cccc(/C=C/c2ccc(/C=C/c3cccc(OCCN(CC)CC)c3OCCN(CC)CC)cc2)c1OCCN(CC)CC [formula 25] | 15.6 | 15 |  |  | 15 |  |  | 1 | 1 | 5 | 5 | 2.9 | 2.1 | 5 | 5 | 62.5 | 62.5 | 15.6 | 125 | 62.5 | Microbicidal activity Staphylococcus aureus 1200 ppm/5 min (Staphylococcus aureus [4]; [12]): 2.9 log reduction; Microbicidal activity Staphylococcus aureus 1200 ppm/30 min (Staphylococcus aureus [4]; [13]): 2.8 log reduction; Microbicidal activity Corynebacterium xerosis 1200 ppm/5 min (Corynebacterium xerosis [5]; [12]): 5 log reductions; Microbicidal activity Corynebacterium xerosis 1200 ppm/30 min (Corynebacterium xerosis [5]; [13]): 5 log reductions; Microbicidal activity Actinomyces viscosus 1200 ppm/5 min (Actinomyces viscosus [6]; [12]): 4 log reductions; Microbicidal activity Actinomyces viscosus 1200 ppm/30 min (Actinomyces viscosus [6]; [13]): 4 log reductions; Microbicidal activity Escherichia coli 1200 ppm/5 min (Escherichia coli [7]; [12]): 5 log reduction; Microbicidal activity Escherichia coli 1200 ppm/30 min (Escherichia coli [7]; [13]): 5 log reduction; MIC (Escherichia coli [10]): 125 µg/mL
3 | CN(C)CCCOc1ccccc1/C=C/c1ccc(/C=C/c2ccccc2OCCCN(C)C)cc1 [formula 26] | 6.3 | 3.8 | 3.8 | 3.8 | 1.9 | 3.8 | 7.5 | 0 | 4 | 2.9 | 5 | 0 | 3.7 | 4.5 | 5 | 12.5 | 6.3 | 3.1 | 200 | 6.3 | MIC [11]: 15 µg/mL; MIC (Escherichia coli [10]): 200 µg/mL; MIC (Klebsiella pneumoniae): 25 µg/mL
4 | Cc1ccc(/C=C/c2ccc(/C=C/c3ccc(C)c(OCCCN(C)C)c3)cc2)cc1OCCCN(C)C [formula 30] | 3.1 | 3.8 | 3.8 | 3.8 | 3.8 | 7.5 | 15 |  |  |  |  |  |  |  |  | 6.3 | 12.5 | 3.1 | 200 | 12.5 | MIC [11]: 15 µg/mL; MIC (Klebsiella pneumoniae): 25 µg/mL
